pIC50: −log10 of the molar value. “Also recorded” adds a separate entry of the source. Like-named read-outs stand apart in the source and are kept apart here. Blank lines part the entries; values can stand above or below the compound they belong to.
Key:
[1] = Calculated lipophilicity, ACD/log P; conditions: Table 3; difference CBI minus MBO, same side chain
Description: (§1) Lipophilicity of small molecule compounds can be calculated in many different ways (reviewed for example in J. Pharm. Sci. (2009) 98, 861). To complement the data provided in Example 6 the calculated lipophilicity of several compounds of the present invention was compared to that of the seco-CBI analogues bearing the same minor groove binding side chain, using four different software packages, i.e. ChemDraw Professional (Perkin Elmer Informatics Inc) as in Example 6, ACD/log P (Advanced Chemistry Development), XLOGP3 (Shanghai Institute of Organic Chemistry), and MLOGP (Talete SRL, Milano, Italy), with the last three accessed via SwissADME (http://swissadme.ch/, Swiss Institute of Bioinformatics). The structures of the compounds are shown (where DNA binding units A, D, E and F, when attached to the 2-methylbenzoxazole alkylating subunit, represent compounds 23, 59, 66 and 74, respectively) and the calculated log P values are collected in Table 3.

cervical carcinoma SiHa = test: Cytotoxicity: inhibition of proliferation, sulforhodamine B staining; type: cell-based, human; conditions: for pIC50: Homo sapiens
Description: (§2) The cytotoxicity of the payloads of the invention was determined by measuring the inhibition of proliferation of two human tumour cell lines, the cervical carcinoma SiHa, and the ovarian carcinoma SKOV3. Log-phase monolayers were exposed continuously to the payloads for 5 days in 96-well plates, followed by sulforhodamine B staining. The IC50 was determined by interpolation as the drug concentration required to inhibit cell density to 50% of that of the untreated controls on the same plate. Every plate contained the reference compound seco-CBI-TMI as an internal control.
(§3) The cytotoxicity of the payloads of the invention was determined by measuring the inhibition of proliferation of two human tumour cell lines, the cervical carcinoma SiHa, and the ovarian carcinoma SKOV3, following the general procedure described in Example 7. In the new determinations the stock solution of payload in DMSO was diluted in series prior to addition to the cell-containing wells of the 96-well plate. The cytotoxicity determinations were repeated several times (n=3-7 depending on compound and cell line) and the results are collected in Table 4.

ovarian carcinoma SKOV3 = test: as above; type: cell-based, human; conditions: for pIC50: Homo sapiens; for differential cytotoxic potency between enantiomers 82 and 83: SKOV3
Description: as §2, §3

[2] = Aqueous stability in neutral buffer (LC-MS / HPLC); type: physicochemical; conditions: 4 μM in Tris buffer (pH 7.4) containing 10% DMF at 37° C., monitored over 300-500 min
Description: The aqueous stability of 23 and reference compound seco-CBI-TMI was investigated by LC-MS analysis. Samples containing the payloads at a concentration of 4 μM in Tris buffer (pH 7.4) containing 10% DMF at 37° C. were monitored at regular intervals over 300-500 min.
The aqueous stability of compounds 52, 59 and 66 was investigated by HPLC analysis. The conditions were the same as those described in Example 8, i.e. samples contained the payloads at a concentration of 4 μM in Tris buffer (pH 7.4) containing 10% DMF at 37° C. In this experiment the solutions were monitored at hourly intervals over 8 h.

[3] = Calculated lipophilicity, ChemDraw Professional; conditions: Table 3; difference CBI minus MBO, same side chain
Description: The lipophilicity was calculated for the representative compounds of the invention using the ChemDraw Professional v.17.0.0 software package (Perkin Elmer Informatics Inc).
as §1

[4] = Bioorg. Med. Chem. Lett. (2010) 20, 1854; cited from earlier work
[5] = SK-OV-3, 120 h, Example 7, Table 2, continuous exposure 5 days, 96-well plates, read-out: IC50 SKOV3
[6] = SK-OV-3, Example 25, Table 4, DMSO stock diluted in series before addition, n=3-7, read-out: IC50 SKOV3 Average

SMILES: COc1cc2cc(C(=O)N3CC(CCl)c4c3cc(O)c3oc(C)nc43)[nH]c2c(OC)c1OC (stereo not shown) [Compound 23, (8-(Chloromethyl)-4-hydroxy-2-methyl-7,8-dihydro-6H-oxazolo[4,5-e]indol-6-yl)(5,6,7-trimethoxy-1H-indol-2-yl)methanone]
LogP ACD Δ [1]: 1.67
pIC50 (cervical carcinoma SiHa; 120 h, read-out: IC50 SiHa): 9.55
pIC50 (cervical carcinoma SiHa; read-out: IC50 SiHa Average): 9.74
pIC50 (ovarian carcinoma SKOV3; [5]): 9.27
pIC50 (ovarian carcinoma SKOV3; [6]): 9.49
aqueous stability (LC-MS) [2]: not stable under these conditions and was rapidly converted to a variety of products
LogP ChemDraw Δ [3]: 1.48

melting point: 234 to 238 °C
SMILES: Cc1nc2c3c(cc(O)c2o1)N(C(=O)OC(C)(C)C)CC3CCl (stereo not shown)

melting point: 225 to 227 °C
SMILES: COc1cc2cc(C(=O)N3CC(CCl)c4c3cc(OCc3ccccc3)c3oc(C)nc43)[nH]c2c(OC)c1OC (stereo not shown)

melting point: 142 to 143 °C
SMILES: Cc1nc2c3c(cc(OCc4ccccc4)c2o1)N(C(=O)OC(C)(C)C)CC3CCl (stereo not shown)

SMILES: COc1cc2cc(C(=O)N3C[C@@H](CCl)c4c3cc(O)c3oc(C)nc43)[nH]c2c(OC)c1OC [Compound 82, (S)-(8-(Chloromethyl)-4-hydroxy-2-methyl-7,8-dihydro-6H-oxazolo[4,5-e]indol-6-yl)(5,6,7-trimethoxy-1H-indol-2-yl)methanone]
differential cytotoxic potency between enantiomers 82 and 83 (cervical carcinoma SiHa): 93 fold
pIC50 (cervical carcinoma SiHa; read-out: IC50 SiHa Average): 9.82
pIC50 (ovarian carcinoma SKOV3; [6]): 9.52
differential cytotoxic potency between enantiomers 82 and 83 (ovarian carcinoma SKOV3): 110 fold

SMILES: COc1cc2cc(C(=O)N3C[C@H](CCl)c4c3cc(O)c3oc(C)nc43)[nH]c2c(OC)c1OC [Compound 83, (R)-(8-(chloromethyl)-4-hydroxy-2-methyl-7,8-dihydro-6H-oxazolo[4,5-e]indol-6-yl)(5,6,7-trimethoxy-1H-indol-2-yl)methanone]
differential cytotoxic potency between enantiomers 82 and 83 (cervical carcinoma SiHa): 93 fold
pIC50 (cervical carcinoma SiHa; read-out: IC50 SiHa Average): 7.85
pIC50 (ovarian carcinoma SKOV3; [6]): 7.48
differential cytotoxic potency between enantiomers 82 and 83 (ovarian carcinoma SKOV3): 110 fold

SMILES: Cc1nc2c3c(cc(O)c2o1)N(C(=O)c1cc2cc(NC(=O)c4cc5cc(OCCN(C)C)ccc5[nH]4)ccc2[nH]1)CC3CCl (stereo not shown) [Compound 53, N-(2-(8-(Chloromethyl)-4-hydroxy-2-methyl-7,8-dihydro-6H-oxazolo[4,5-e]indole-6-carbonyl)-1H-indol-5-yl)-5-(2-(dimethylamino)ethoxy)-1H-indole-2-carboxamide]
pIC50 (cervical carcinoma SiHa; 120 h, read-out: IC50 SiHa): 8.14
pIC50 (cervical carcinoma SiHa; read-out: IC50 SiHa Average): 8.54
pIC50 (ovarian carcinoma SKOV3; [5]): 8.05
pIC50 (ovarian carcinoma SKOV3; [6]): 8.38

SMILES: COCCOc1ccc2[nH]c(C(=O)N3CC(CCl)c4c3cc(O)c3oc(C)nc43)cc2c1 (stereo not shown) [Compound 66, (8-(Chloromethyl)-4-hydroxy-2-methyl-7,8-dihydro-6H-oxazolo[4,5-e]indol-6-yl)(5-(2-methoxyethoxy)-1H-indol-2-yl)methanone]
LogP ACD Δ [1]: 1.67
pIC50 (cervical carcinoma SiHa; read-out: IC50 SiHa Average): 9.70
pIC50 (ovarian carcinoma SKOV3; [6]): 9.77
LogP ChemDraw Δ [3]: 1.48

SMILES: COc1ccc(/C=C/C(=O)N2CC(CCl)c3c2cc(O)c2oc(C)nc32)cc1O (stereo not shown) [Compound 59, (E)-1-(8-(Chloromethyl)-4-hydroxy-2-methyl-7,8-dihydro-6H-oxazolo[4,5-e]indol-6-yl)-3-(3-hydroxy-4-methoxyphenyl) prop-2-en-1-one]
LogP ACD Δ [1]: 1.61
pIC50 (cervical carcinoma SiHa; read-out: IC50 SiHa Average): 9.21
pIC50 (ovarian carcinoma SKOV3; [6]): 9.30
LogP ChemDraw Δ [3]: 1.48

SMILES: CC(=O)Nc1ccc2nc(C(=O)N3CC(CCl)c4c3cc(O)c3oc(C)nc43)cn2c1 (stereo not shown) [Compound 74, N-(2-(8-(Chloromethyl)-4-hydroxy-2-methyl-7,8-dihydro-6H-oxazolo[4,5-e]indole-6-carbonyl)imidazo[1,2-a]pyridin-6-yl)acetamide]
LogP ACD Δ [1]: 1.66
pIC50 (cervical carcinoma SiHa; read-out: IC50 SiHa Average): 7.89
pIC50 (ovarian carcinoma SKOV3; [6]): 7.79
LogP ChemDraw Δ [3]: 1.48

SMILES: COC(=O)c1nc2c(O)cc3c(c2o1)C(CCl)CN3C(=O)c1cc2cc(OC)c(OC)c(OC)c2[nH]1 (stereo not shown) [seco-COI-TMI]
cytotoxicity relative to reference compounds / CBI analogues [4]: several hundred fold less cytotoxic

SMILES: COc1ccc2sc(C(=O)N3CC(CCl)c4c3cc(O)c3oc(C)nc43)cc2c1 (stereo not shown) [Compound 65, (8-(Chloromethyl)-4-hydroxy-2-methyl-7,8-dihydro-6H-oxazolo[4,5-e]indol-6-yl)(5-methoxybenzo[b]thiophen-2-yl)methanone]
pIC50 (cervical carcinoma SiHa; read-out: IC50 SiHa Average): 8.57
pIC50 (ovarian carcinoma SKOV3; [6]): 8.77

SMILES: COc1cc2cc(C(=O)N3CC(CCl)c4c3cc(O)c3ccccc43)[nH]c2c(OC)c1OC (stereo not shown) [Seco-CBI-TMI, reference compound]
pIC50 (cervical carcinoma SiHa; 120 h, read-out: IC50 SiHa): 9.64
pIC50 (cervical carcinoma SiHa; read-out: IC50 SiHa Average): 9.80
pIC50 (ovarian carcinoma SKOV3; [5]): 9.24
pIC50 (ovarian carcinoma SKOV3; [6]): 9.57
aqueous stability (LC-MS) [2]: clean conversion to the cyclopropyl form (CBI-TMI), which was stable under these conditions; also recorded: prolonged stability

SMILES: CC(=O)Nc1cnc2[nH]c(C(=O)N3CC(CCl)c4c3cc(O)c3oc(C)nc43)cc2c1 (stereo not shown) [Compound 70, N-(2-(8-(Chloromethyl)-4-hydroxy-2-methyl-7,8-dihydro-6H-oxazolo[4,5-e]indole-6-carbonyl)-1H-pyrrolo[2,3-b]pyridin-5-yl)acetamide]
pIC50 (cervical carcinoma SiHa; read-out: IC50 SiHa Average): < 7.70
pIC50 (ovarian carcinoma SKOV3; [6]): < 7.70

SMILES: COc1ccc(/C=C/C(=O)Nc2ccc3[nH]c(C(=O)N4CC(CCl)c5c4cc(O)c4oc(C)nc54)cc3c2)cc1 (stereo not shown) [Compound 63, (E)-N-(2-(8-(Chloromethyl)-4-hydroxy-2-methyl-7,8-dihydro-6H-oxazolo[4,5-e]indole-6-carbonyl)-1H-indol-5-yl)-3-(4-methoxyphenyl)acrylamide]
pIC50 (cervical carcinoma SiHa; read-out: IC50 SiHa Average): 9.16
pIC50 (ovarian carcinoma SKOV3; [6]): 9.21

Source: patent US20220098215A1, “DUOCARMYCIN ANALOGUES” (AUCKLAND UNISERVICES LIMITED, priority 2019, published 2022)
